Measurements published in patent US20230271954A1 (Gossamer Bio Services, Inc., priority 2020, published 2023).

Tests used:
DGKα = DGKα (Homo sapiens, UniProt P23743); assay: DGKα biochemical assay (ADP-Glo); conditions: read-out: DGK α IC50
Outline: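 ADP-Glo kinase assay using OAG/PS (1:2) lipid substrate, sonicated, in HEPES pH 7.0 buffer with MgCl2, CaCl2, DTT, BSA, Triton X-100. Enzyme preincubated with compound 30 min at RT; substrate with ATP (DGKα: 400 μM) added, 45 min RT. Luminescence read; % inhibition vs DMSO and no-enzyme controls.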

DGKζ = molecular target: T1, DGKζ (Homo sapiens, UniProt Q13574); assay: DGKζ biochemical assay (ADP-Glo); conditions: read-out: DGK ζ IC50
T1 construct: purchased Carna 12-110
T1 sequence (Q13574 1-929 isoform Q13574-4): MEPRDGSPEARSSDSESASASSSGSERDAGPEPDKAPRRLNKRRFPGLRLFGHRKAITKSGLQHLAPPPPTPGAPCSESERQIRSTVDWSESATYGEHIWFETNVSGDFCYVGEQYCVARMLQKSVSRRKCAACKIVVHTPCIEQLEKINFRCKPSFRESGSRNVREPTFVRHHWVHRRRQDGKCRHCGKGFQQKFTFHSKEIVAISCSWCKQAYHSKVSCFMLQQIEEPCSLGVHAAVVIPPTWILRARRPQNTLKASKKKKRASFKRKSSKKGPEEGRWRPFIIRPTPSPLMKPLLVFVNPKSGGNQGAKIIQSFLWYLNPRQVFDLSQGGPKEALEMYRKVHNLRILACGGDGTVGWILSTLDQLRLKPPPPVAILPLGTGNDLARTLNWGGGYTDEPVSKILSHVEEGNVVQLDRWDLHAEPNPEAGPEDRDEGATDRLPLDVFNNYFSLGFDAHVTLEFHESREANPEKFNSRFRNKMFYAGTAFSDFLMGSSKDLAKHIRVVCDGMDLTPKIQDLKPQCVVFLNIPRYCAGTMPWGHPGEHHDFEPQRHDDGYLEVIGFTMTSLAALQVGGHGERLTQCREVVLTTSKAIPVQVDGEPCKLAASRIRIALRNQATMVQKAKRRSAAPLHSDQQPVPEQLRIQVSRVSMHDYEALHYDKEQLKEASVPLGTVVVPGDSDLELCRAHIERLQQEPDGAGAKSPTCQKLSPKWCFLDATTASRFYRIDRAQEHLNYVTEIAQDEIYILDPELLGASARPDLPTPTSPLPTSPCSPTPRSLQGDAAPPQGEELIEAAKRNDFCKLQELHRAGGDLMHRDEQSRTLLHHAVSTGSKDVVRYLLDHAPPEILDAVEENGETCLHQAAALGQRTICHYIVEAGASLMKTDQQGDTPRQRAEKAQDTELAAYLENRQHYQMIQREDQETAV

Chain of DGKα (P23743 whole entry): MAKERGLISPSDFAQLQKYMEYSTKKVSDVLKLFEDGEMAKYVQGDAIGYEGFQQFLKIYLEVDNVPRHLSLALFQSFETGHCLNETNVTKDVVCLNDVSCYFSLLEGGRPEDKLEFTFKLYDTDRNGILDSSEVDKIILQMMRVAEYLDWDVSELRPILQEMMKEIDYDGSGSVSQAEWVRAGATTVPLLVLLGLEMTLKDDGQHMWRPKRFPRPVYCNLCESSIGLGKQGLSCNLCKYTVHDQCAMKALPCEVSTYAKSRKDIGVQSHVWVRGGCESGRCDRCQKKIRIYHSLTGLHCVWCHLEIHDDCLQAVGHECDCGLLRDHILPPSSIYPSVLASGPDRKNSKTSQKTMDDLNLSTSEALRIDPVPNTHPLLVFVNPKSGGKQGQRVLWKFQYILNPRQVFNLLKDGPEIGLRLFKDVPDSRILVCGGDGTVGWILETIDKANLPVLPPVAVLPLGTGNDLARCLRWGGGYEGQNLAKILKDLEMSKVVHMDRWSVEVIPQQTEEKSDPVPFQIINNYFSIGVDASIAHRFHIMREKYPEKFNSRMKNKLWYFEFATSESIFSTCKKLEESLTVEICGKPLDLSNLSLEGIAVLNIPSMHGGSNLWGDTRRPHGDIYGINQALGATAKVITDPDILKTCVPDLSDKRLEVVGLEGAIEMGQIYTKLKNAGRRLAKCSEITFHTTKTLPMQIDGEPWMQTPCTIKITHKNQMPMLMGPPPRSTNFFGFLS

IC50 (DGKα) | IC50 (DGKζ) | SMILES
100 to 1000 nM | 100 to 1000 nM | Cn1c(=O)cc(N(C)[C@H]2CC[C@@H](N(CC3COCCO3)c3ccc(F)c(OC(F)F)c3)CC2)c2nc(C#N)ccc21 (stereo partly drawn) [Example 188, cis-8-((-4-(((1,4-dioxan-2-yl)methyl)(3-(difluoromethoxy)-4-fluorophenyl)amino)cyclohexyl) (methyl)amino)-5-methyl-6-oxo-5,6-dihydro-1,5-naphthyridine-2-carbonitrile]
100 to 1000 nM | ≥ 1000 nM | Cn1c(=O)cc(N(C)[C@H]2CC[C@H](N(CC3CC3)c3ccc(F)cn3)CC2)c2nc(C#N)ccc21 [Example 3AA]
10 to 100 nM | 10 to 100 nM | Cn1c(=O)cc(N(C)[C@H]2CC[C@@H](N(CC3CCC3)c3ccc4c(c3)OCCO4)CC2)c2nc(C#N)ccc21 [Example 169, cis-8-((4-((cyclobutylmethyl)(2,3-dihydrobenzo[b] [1,4]dioxin-6-yl)amino)cyclohexyl)(methyl)amino)-5-methyl-6-oxo-5,6-dihydro-1,5-naphthyridine-2-carbonitrile]
100 to 1000 nM | 100 to 1000 nM | COc1cc(F)ccc1N(C1CC1)[C@H]1CC[C@@H](N(C)c2cc(=O)n(C)c3ccc(C#N)nc23)CC1 [Example 3W, cis-8-[[4-(N-Cyclopropyl-4-fluoro-2-methoxy-anilino)cyclohexyl]-methyl-amino]-5-methyl-6-oxo-1,5-naphthyridine-2-carbonitrile]
10 to 100 nM | 100 to 1000 nM | Cc1cc(N(CC2CCOC2)[C@H]2CC[C@@H](N(C)c3cc(=O)n(C)c4ccc(C#N)nc34)CC2)ccc1F (stereo partly drawn) [Example 157, cis-8-((-4-((4-fluoro-3-methylphenyl) ((tetrahydrofuran-3-yl)methyl)amino)cyclohexyl) (methyl)amino)-5-methyl-6-oxo-5,6-dihydro-1,5-naphthyridine-2-carbonitrile]
10 to 100 nM | ≥ 1000 nM | CN(c1c(C#N)c(=O)n(C)c2ccc(C#N)nc12)C1CCC(N(CC2CCC2)c2ccc(CN3CCOCC3)cc2)CC1 (single isomer, unassigned) [Example 190, (cis or trans)-8-((4-((cyclobutylmethyl)(4-(morpholinomethyl)phenyl)amino)cyclohexyl) (methyl)amino)-5-methyl-6-oxo-5,6-dihydro-1,5-naphthyridine-2,7-dicarbonitrile]
≥ 1000 nM | 10 to 100 nM | Cc1cc(F)ccc1N(CC1CC1)[C@H]1CC[C@@H](N(C)c2c(C#N)c(=O)n(C)c3ccc(C#N)nc23)CC1 [Example 119, cis-8-((4-((cyclopropylmethyl)(4-fluoro-2-methylphenyl)amino)cyclohexyl)(methyl)amino)-5-methyl-6-oxo-5,6-dihydro-1,5-naphthyridine-2,7-dicarbonitrile]
100 to 1000 nM | 100 to 1000 nM | Cc1ccc(N(CC2CCC2)[C@H]2CC[C@H](N(C)c3c(C#N)c(=O)n(C)c4ccc(C#N)nc34)CC2)cc1 [Example 129, trans-8-((-4-((cyclobutylmethyl)(p-tolyl)amino)cyclohexyl)(methyl)amino)-5-methyl-6-oxo-5,6-dihydro-1,5-naphthyridine-2,7-dicarbonitrile]
10 to 100 nM | 100 to 1000 nM | Cn1c(=O)c(C#N)c(N(C)[C@H]2CC[C@@H](N(CC3COC3)c3ccc(F)cc3)CC2)c2nc(Cl)ccc21 [Example 3M, cis-6-Chloro-4-[[4-(N-4-fluorophenyl-N-oxetan-3-ylmethylanilino)cyclohexyl]-methylamino]-1-methyl-2-oxo-1,2-dihydro-1,5-naphthyridine-3-carbonitrile]
10 to 100 nM | 100 to 1000 nM | Cn1c(=O)c(C#N)c(N(C)[C@H]2CC[C@H](N(CC3CC3)c3ccc(F)cn3)CC2)c2nc(Cl)ccc21 [Example 3L, trans-6-chloro-4-((4-((cyclopropylmethyl)(5-fluoropyridin-2-yl)amino)cyclohexyl)(methyl)amino)-1-methyl-2-oxo-1,2-dihydro-1,5-naphthyridine-3-carbonitrile]
100 to 1000 nM | 100 to 1000 nM | Cc1cc(F)cc(N(CC2CC2)[C@H]2CC[C@H](N(C)c3c(C#N)c(=O)n(C)c4ccc(C#N)nc34)CC2)c1 [Example 87]
100 to 1000 nM | 100 to 1000 nM | Cc1nc(F)ccc1N(CC1CCOC1)[C@H]1CC[C@H](N(C)c2c(C#N)c(=O)n(C)c3ccc(C#N)nc23)CC1 (stereo partly drawn) [Example 130, trans-8-((-4-((6-fluoro-2-methylpyridin-3-yl) ((tetrahydrofuran-3-yl)methyl)amino)cyclohexyl) (methyl)amino)-5-methyl-6-oxo-5,6-dihydro-1,5-naphthyridine-2,7-dicarbonitrile]
≥ 1000 nM | ≥ 1000 nM | Cc1cc(F)ccc1N(CC1CCC1)[C@H]1CC[C@H](N(C)c2c(C#N)c(=O)n(C)c3ccc(Cl)nc23)CC1 [Example 104, trans-6-chloro-4-((4-((cyclobutylmethyl)(4-fluoro-2-methylphenyl)amino)cyclohexyl)(methyl)amino)-1-methyl-2-oxo-1,2-dihydro-1,5-naphthyridine-3-carbonitrile]
10 to 100 nM | 100 to 1000 nM | Cn1c(=O)c(C#N)c(N(C)[C@H]2CC[C@H](N(c3ccccc3O)C3CC3)CC2)c2nc(Cl)ccc21 [Example 3D, 6-Chloro-4-((trans-4-(cyclopropyl(2-hydroxyphenyl)amino)cyclohexyl)(methyl)amino)-1-methyl-2-oxo-1,2-dihydro-1,5-naphthyridine-3-carbonitrile]
100 to 1000 nM | 100 to 1000 nM | Cn1c(=O)cc(N(C)[C@H]2CC[C@@H](N(CC3COCCO3)c3ccc4c(c3)OCCO4)CC2)c2nc(C#N)ccc21 (stereo partly drawn) [Example 183, cis-8-((4-(((1,4-dioxan-2-yl)methyl)(2,3-dihydrobenzo[b][1,4]dioxin-6-yl)amino)cyclohexyl) (methyl)amino)-5-methyl-6-oxo-5,6-dihydro-1,5-naphthyridine-2-carbonitrile]
< 10 nM | 100 to 1000 nM | Cn1c(=O)c(F)c(N(C)[C@H]2CC[C@@H](N(CC3COCCO3)c3ccc(F)cc3)CC2)c2nc(C#N)ccc21 (stereo partly drawn) [Example 203, cis-8-((-4-(((1,4-dioxan-2-yl)methyl)(4-fluorophenyl)amino)cyclohexyl)(methyl)amino)-7-fluoro-5-methyl-6-oxo-5,6-dihydro-1,5-naphthyridine-2-carbonitrile]
100 to 1000 nM | 10 to 100 nM | Cn1c(=O)c(C#N)c(N(C)[C@H]2CC[C@@H](N(CC3CC3)c3ccc(F)c(F)c3)CC2)c2nc(C#N)ccc21 [Example 60, cis-8-((4-((cyclopropylmethyl)(3,4-difluorophenyl)amino)cyclohexyl)(methyl)amino)-5-methyl-6-oxo-5,6-dihydro-1,5-naphthyridine-2,7-dicarbonitrile]
100 to 1000 nM | 100 to 1000 nM | Cc1cc(N(CC2CCC2)[C@H]2CC[C@H](N(C)c3c(C#N)c(=O)n(C)c4ccc(C#N)nc34)CC2)ccc1F [Example 126, trans-8-((-4-((cyclobutylmethyl)(4-fluoro-3-methylphenyl)amino)cyclohexyl)(methyl)amino)-5-methyl-6-oxo-5,6-dihydro-1,5-naphthyridine-2,7-dicarbonitrile]
≥ 1000 nM | 100 to 1000 nM | Cc1ccc(F)cc1N(CC1CC1)[C@H]1CC[C@H](N(C)c2c(C#N)c(=O)n(C)c3ccc(Cl)nc23)CC1 [Example 118, trans-6-chloro-4-((4-((cyclopropylmethyl)(5-fluoro-2-methylphenyl)amino)cyclohexyl)(methyl)amino)-1-methyl-2-oxo-1,2-dihydro-1,5-naphthyridine-3-carbonitrile]
≥ 1000 nM | 100 to 1000 nM | COc1cc(F)ccc1N(C1CC1)[C@H]1CC[C@H](N(C)c2c(C#N)c(=O)n(C)c3ccc(C#N)nc23)CC1 [Example 37, trans-8-((4-(cyclopropyl(4-fluoro-2-methoxyphenyl)amino)cyclohexyl)(methyl)amino)-5-methyl-6-oxo-5,6-dihydro-1,5-naphthyridine-2,7-dicarbonitrile]
100 to 1000 nM | 100 to 1000 nM | Cn1c(=O)cc(N(C)[C@H]2CC[C@@H](N(CC3CC3)c3ccc(F)c(OC4CC4)c3)CC2)c2nc(C#N)ccc21 [Example 122, cis-8-((-4-((3-cyclopropoxy-4-fluorophenyl) (cyclopropylmethyl)amino)cyclohexyl)(methyl)amino)-5-methyl-6-oxo-5,6-dihydro-1,5-naphthyridine-2-carbonitrile]
10 to 100 nM | 100 to 1000 nM | Cn1c(=O)c(C#N)c(N(C)[C@H]2CC[C@@H](N(C[C@H]3CCOC3)c3ccc(F)cc3)CC2)c2nc(C#N)ccc21 [Example 66]
100 to 1000 nM | 100 to 1000 nM | COc1cc(N(CC2CC2)[C@H]2CC[C@@H](N(C)c3c(C#N)c(=O)n(C)c4ccc(Cl)nc34)CC2)cc(F)c1F [Example 98]
10 to 100 nM | 100 to 1000 nM | Cn1c(=O)cc(N(C)[C@H]2CC[C@@H](N(CC3CC3)c3cc(F)cc(F)c3)CC2)c2nc(C#N)ccc21 [Example 82]
10 to 100 nM | ≥ 1000 nM | Cn1c(=O)c(C#N)c(N(C)[C@H]2CC[C@@H](N(C(=O)C3CC3)c3ccc(F)cc3)CC2)c2nc(C#N)ccc21 [Example 206, cis-N-(4-((3,6-dicyano-1-methyl-2-oxo-1,2-dihydro-1,5-naphthyridin-4-yl)(methyl)amino)cyclohexyl)-N-(4-fluorophenyl)cyclopropanecarboxamide]
10 to 100 nM | ≥ 1000 nM | COc1cccc(N(CC2CC2)[C@H]2CC[C@H](N(C)c3c(C#N)c(=O)n(C)c4ccc(Cl)nc34)CC2)c1 [Example 21, trans-6-chloro-4-((4-((cyclopropylmethyl)(3-methoxyphenyl)amino)cyclohexyl)(methyl)amino)-1-methyl-2-oxo-1,2-dihydro-1,5-naphthyridine-3-carbonitrile]
